Test results from patent US4542027A, “Laidlomycin phenylcarbamate” (Syntex (U.S.A.) Inc., priority 1984, dated 1985).

Assays:
rumen fluid [1] = test: Propionic acid production (VFA) in in vitro rumen fluid fermentation; type: cell-based, steer; design: Propionic acid production rate: unit not given here
Method: (§1) Two separate fermentation models were used to evaluate effects of laidlomycin and laidlomycin phenylcarbamate upon volatile fatty acids (VFA) and lactic acid production. Test compounds were solubilized in absolute ethanol at concentrations of 1 mg/ml and were serially diluted twofold in absolute ethanol through six additional concentrations. Aliquots of 200 μl were transferred to 18×150 mm test tubes, which were used as incubation vessels, and the ethanol was evaporated.
(§2) For both fermentation models rumen fluid from a rumen-fistulated steer, consuming a 100% alfalfa hay diet, was obtained before the morning feeding. The fluid was strained through four layers of cheesecloth, mixed with an equal volume of CO2 -saturated buffer, and 10 ml was transferred to each of the incubation vessels. All tubes were fitted with gas-release stoppers under an atmosphere of CO2 and were incubated in a shaking waterbath at 39° C. […] This medium, designed to be microbiologically nonselective, encouraged VFA production with no accumulation of lactic acid. Buffer used to study lactic acid accumulation (table 1) contained 150 mmol of glucose/liter and had little buffering capacity. This medium favored growth of lactic acid-producing bacteria and allowed rapid production of lactic acid coupled with a precipitous drop in pH from pH 6.2 to less than pH 5 during the course of an incubation.
(§3) Fermentation was terminated at 9 h for the VFA fermentations and at 5.5 h for the lactic acid fermentations by addition of 2 ml of 25% metaphosphoric acid to the incubation tubes. Aliquots were frozen overnight, thawed, centrifuged at 30,000 × g for 10 min and the resulting supernatants analyzed for either L(+)-lactic acid or VFA. The L(+)-lactic acid was analyzed via a specific enzymatic assay in which the concentration of lactic acid in the fermentation broth was quantified by the increase in absorbance of light at 340 nm when nicotinamide adenine dinucleotide was reduced by lactic acid with the aid of L(+)-lactic dehydrogenase. VFA were analyzed via gas chromatography using a Varian chromatograph equipped with a flame ionization detector. Acids were separated on a glass column (0.64×182.9 cm) packed with 10% SP-1200/1% H3 PO4 on Chromosorb-WAW®, 80-100 mesh. This column was obtained pre-packed from Supelco, Inc., Bellefont, Pennsylvania. Chromatographic conditions included a column temperature of 145° C., an injector temperature of 190° C., a detector temperature of 190° C., a carrier gas flow of 45 ml/min and an injection volume of 1 μl.
(§4) Net production rates of all acids were calculated by subtracting the concentration of acids in the incubation fluid before incubation from the concentration determined in each tube after incubation. Molar proportions of acetic, propionic, and butyric acids produced were calculated by dividing the production rate of individual acids by the sum of the production rates of the three acids. Data were analyzed by analysis of variance (SAS, 1979). Comparisons (Duncan's multiple range test) of individual means were made when treatment effects (P<0.05) were indicated.

[2] = Stability at 60° C. in methanol-water, acetate buffer; type: physicochemical
Method: Laidlomycin phenylcarbamate, laidlomycin isopopylcarbamate and two laidlomycin esters were prepared and their relative stability at 60° C. methanol-water, acetate buffer was determined. A complete list of the esters and carbamates which were tested under these conditions follows: […]

rumen fluid [3] = test: L(+)-Lactic acid production in in vitro rumen fluid fermentation; type: cell-based, steer; design: Lactic acid production rate: unit not given here
Method: as §1, §2, §3, §4

[4] = Stability in soybean millrun feed premix at 60° C.; type: physicochemical
Method: These materials were then stored at 60° C. and analyzed for starting material at one week. The premix composition is given in Table 5 and the stability data in Table 6.

[5] = system: Eimeria acervulina and Eimeria maxima; test: Anticoccidial activity in broiler chicks challenged with Eimeria acervulina and Eimeria maxima; type: in vivo; details: for Feed efficiency, feed/gain: 7 d; for Feed consumption / Gain / Final weight: cage of 12 chicks; for Final weight / Lesion scores, middle intestine / Lesion scores, upper intestine: 7 days after challenge; for Lesion scores, middle intestine / Lesion scores, upper intestine: scale 0 (least) to 4 (most severe)
Excerpt: Broiler chicks were reared, 12 per cage, in wire-floored battery cages under conditions which prevented extraneous coccidial infections. All chicks received a nonmedicated starter diet ad libitum until 8 days of age. From 8 days of age until the end of the study, chicks received the test diets which contained either O, 99, 121, 143 or 165 ppm of laidlomycin phenylcarbamate per kg of feed. Three replicate pens per treatment were used for all levels of experimental compounds tested.
At 10 days of age, birds were orally challenged with 200,000 oocycts of the coccidia, Eimeria acervulina, and 20,000 oocysts of Eimeria maxima per bird. The birds were weighed immediately preceding the coccidial challenge and again 7 days later. At 7 days following coccidial challenge, all birds were killed and lesions in the upper and middle sections of the intestinal tracts of six preselected birds per cage were scored on a scale of 0 to 4 based upon their number and severity. Feed present at the time of coccidial challenge and remaining 7 days later was used to determine the effects of compounds upon total feed consumption and feed efficiency.

[6] = in comparison with laidlomycin acylates
[7] = all non-zero concentrations, vs unmedicated

## CCC(=O)OC(C(C)C(=O)O)C(C)C1OC2(CCC(C)(C3CCC(C)(C4OC(C5OC(O)(COC(=O)Nc6ccccc6)C(C)CC5C)CC4C)O3)O2)CC(O)C1C (stereo not drawn) [Laidlomycin phenylcarbamate, laidlomycin phenylcarbamate]
Rumen fluid [1]
  Propionate production enhancement (in words): surprisingly and unexpectedly high
Rumen fluid [1]; 0.31 μg/ml, 9 h
  Propionic acid production rate: 22.8
Rumen fluid [1]; 0.62 μg/ml, 9 h
  Propionic acid production rate: 23.4
Rumen fluid [1]; 1.25 μg/ml, 9 h
  Propionic acid production rate: 25.2
Rumen fluid [1]; 2.50 μg/ml, 9 h
  Propionic acid production rate: 25.7
Rumen fluid [1]; 5.00 μg/ml, 9 h
  Propionic acid production rate: 26.9
Rumen fluid [1]; 10.00 μg/ml, 9 h
  Propionic acid production rate: 27.0
Rumen fluid [1]; 20.00 μg/ml, 9 h
  Propionic acid production rate: 28.2
Rumen fluid [1]; 20.00 μg/ml, 9 h, 540 min
  Propionic acid production, percentage of control: 133 % of control
Rumen fluid [1]; 9 h, 0.31 μg/ml, 9 h, read-out: Propionic acid production, percentage of control
  activity at 0.31 µg/mL: 107%
Rumen fluid [1]; 9 h, 1.25 μg/ml, 9 h, read-out: Propionic acid production, percentage of control
  activity at 1.25 µg/mL: 118%
Rumen fluid [1]; 9 h, 2.50 μg/ml, 9 h, read-out: Propionic acid production, percentage of control
  activity at 2.5 µg/mL: 121%
Rumen fluid [1]; 9 h, 5.00 μg/ml, 9 h, read-out: Propionic acid production, percentage of control
  activity at 5 µg/mL: 126%
Rumen fluid [1]; 9 h, 10.00 μg/ml, 9 h, read-out: Propionic acid production, percentage of control
  activity at 10 µg/mL: 127%
Rumen fluid [1]; 9 h, 20.00 μg/ml, 9 h, read-out: Propionic acid production, percentage of control
  activity at 20 µg/mL: > 130%
Rumen fluid [1]; 9 h, read-out: Propionic acid production, percentage of control, 0.62 μg/ml, 9 h
  activity at 0.62 µg/mL: 110%
Rumen fluid [1]; over all concentrations
  Propionic acid production enhancement relative to laidlomycin: more potent than laidlomycin (P<0.05)
[2]; 60° C., methanol-water, acetate buffer, read-out: t1/2 (converted)
  half-life: 32.7 days
[2]; [6]
  Stability in solution (in words): highly stable
Rumen fluid [3]
  Lactic acid suppression (in words): surprisingly and unexpectedly high
Rumen fluid [3]; 0.31 μg/ml, 5.5 h
  Lactic acid production rate: 28.4
Rumen fluid [3]; 0.31 μg/ml, 5.5 h, read-out: Lactic acid production, percentage of control
  activity at 0.31 µg/mL: 102%
Rumen fluid [3]; 0.62 μg/ml, 5.5 h
  Lactic acid production rate: 27.7
Rumen fluid [3]; 0.62 μg/ml, 5.5 h, read-out: Lactic acid production, percentage of control
  activity at 0.62 µg/mL: 99%
Rumen fluid [3]; 1.25 μg/ml, 5.5 h
  Lactic acid production rate: 15.6
Rumen fluid [3]; 1.25 μg/ml, 5.5 h, read-out: Lactic acid production, percentage of control
  activity at 1.25 µg/mL: 56%
Rumen fluid [3]; 2.50 μg/ml, 5.5 h
  Lactic acid production rate: 6.1
  Lactic acid production, percentage of control: 21 % of control
Rumen fluid [3]; 2.50 μg/ml, 5.5 h, read-out: Lactic acid production, percentage of control
  activity at 2.5 µg/mL: 21%
Rumen fluid [3]; 5.00 μg/ml, 5.5 h
  Lactic acid production rate: 3.8
Rumen fluid [3]; 5.00 μg/ml, 5.5 h, read-out: Lactic acid production, percentage of control
  activity at 5 µg/mL: 13%
Rumen fluid [3]; 10.00 μg/ml, 5.5 h
  Lactic acid production rate: 4.0
Rumen fluid [3]; 10.00 μg/ml, 5.5 h, read-out: Lactic acid production, percentage of control
  activity at 10 µg/mL: 14%
Rumen fluid [3]; 20.00 μg/ml, 5.5 h
  Lactic acid production rate: 3.8
Rumen fluid [3]; 20.00 μg/ml, 5.5 h, read-out: Lactic acid production, percentage of control
  activity at 20 µg/mL: 13%
Rumen fluid [3]; over all concentrations tested
  Inhibition of lactic acid production relative to laidlomycin: superior to laidlomycin (P<0.05)
[4]; [6]
  Stability in feed premixes (in words): highly stable
[4]; soybean millrun feed premix, 60° C., one week, soybean millrun premix, 10% (w/w)
  remaining at 168 h: 100%
[5]; 99 mg/kg of feed
  Feed efficiency, feed/gain: 2.21
  Feed consumption: 3.40 kg/7 d
  Gain: 1.54 kg/7 d
  Final weight: 3.86 kg
  Lesion scores, middle intestine: 1.43
  Lesion scores, upper intestine: 1.20
[5]; 121 mg/kg of feed
  Feed efficiency, feed/gain: 2.16
  Feed consumption: 3.19 kg/7 d
  Gain: 1.47 kg/7 d
  Final weight: 3.72 kg
  Lesion scores, middle intestine: 1.57
  Lesion scores, upper intestine: 1.23
[5]; 143 mg/kg of feed
  Feed efficiency, feed/gain: 2.19
  Feed consumption: 3.46 kg/7 d
  Gain: 1.58 kg/7 d
  Final weight: 3.97 kg
  Lesion scores, middle intestine: 1.47
  Lesion scores, upper intestine: 0.50
[5]; 165 mg/kg of feed
  Feed efficiency, feed/gain: 1.84
  Feed consumption: 3.47 kg/7 d
  Gain: 1.89 kg/7 d
  Final weight: 4.21 kg
  Lesion scores, middle intestine: 0.70
  Lesion scores, upper intestine: 0.66
[5]; all non-zero concentrations tested
  Protection against coccidiosis: protection against coccidiosis was afforded by all non-zero concentrations
[5]; [7]
  Lesion scores in the upper and middle intestines (in words): greatly reduced lesion scores in the upper and middle intestines
  Quantity of feed required per unit of gain (in words): halved the quantity of feed required per unit of gain
  Weight gain (in words): doubled weight gain
